Where two headings read alike, the source gives them in different places.
Assays:
[1] = 15% relative humidity and 23° C.
Procedure: A method of measuring electrostatic nature is a tribogeneration where relative charge on the powdered sample is measured with an electrometer equipped with a Faraday cup (NanoCoulumb Meter, Model 284, Monroe Electronics, USA). Prior to measurement, the charge is generated by strongly vibrating the sample (approximately 3 g) on a dry Petri dish (D=24 cm) for 2 minutes. The charged sample is then transferred to a Faraday cup of the electrometer with a plastic spoon and its charge is measured by an electrometer. After the charge measurement the sample is weighted and the relative charge calculated. All measurements are performed at controlled dry atmosphere conditions (15% relative humidity and 23° C.).

[2] = SEM image, N=200 crystals
Procedure: The shape of crystals is determined by an analysis of an image, taken by the scanning electron microscope (SEM), JEOL JXA840A at magnification 500-2000×. The length/width ratio of the crystal habit is determined by measuring length and width of a representative sample (N=200) of crystals on the image, using the image analyzing software Olympus DP-Soft, v-3.2. The length/width ratio is calculated independently for each crystal. Finally, the number average of the ratio is determined and optionally histogram calculated.

| Compound | chargeab. (chargeability by tribogeneration) [1] | a (length of crystals) [2] [μm] | a:b (length/width ratio, number average) [2] | b (width of crystals) [2] [μm] | chargeab. (chargeability by tribogeneration) ([1]; listed as 1649) | chargeab. (chargeability by tribogeneration) ([1]; listed as 3913D) |
| --- | --- | --- | --- | --- | --- | --- |
| CCCCC1=NC2(CCCC2)C(=O)N1Cc1ccc(-c2ccccc2-c2nnn[nH]2)cc1 [Example 6, 2-n-butyl-4-spirocyclopentane-1-[((2′-tetrazol-5-yl)biphenyl-4-yl)methyl]-2-imidazolin-5-one] | −27.9 ± 2.8 10^−9 As/g | 32 ± 32 | 22 ± 18 | 1.4 ± 0.6 |  |  |
| CCCCC1=NC2(CCCC2)C(=O)N1Cc1ccc(-c2ccccc2-c2nnn[nH]2)cc1 [Example 7, 2-n-butyl-4-spirocyclopentane-1-[((2′-tetrazol-5-yl)biphenyl-4-yl)methyl]-2-imidazolin-5-one] | −26.5 ± 6 10^−9 As/g | 21 ± 17 | 13 ± 9 | 2.6 ± 1.0 | −26.5±6 10^−9 As/g |  |
| CCCCC1=NC2(CCCC2)C(=O)N1Cc1ccc(-c2ccccc2-c2nnn[nH]2)cc1 [Example 4, 2-n-butyl-4-spirocyclopentane-1-[((2′-tetrazol-5-yl)biphenyl-4-yl)methyl]-2-imidazolin-5-one] | −27.5 ± 5.6 10^−9 As/g | 130 ± 96 | 17 ± 12.9 | 7.9 ± 3.4 |  |  |
| CCCCC1=NC2(CCCC2)C(=O)N1Cc1ccc(-c2ccccc2-c2nnn[nH]2)cc1 [Example 2, 2-n-butyl-4-spirocyclopentane-1-[((2′-tetrazol-5-yl)biphenyl-4-yl)methyl]-2-imidazolin-5-one] | −32 ± 4.6 10^−9 As/g | 78 ± 68 | 13.4 ± 1.9 | 6.7 ± 2.8 |  |  |
| CCCCC1=NC2(CCCC2)C(=O)N1Cc1ccc(-c2ccccc2-c2nnn[nH]2)cc1 [Example 3, 2-n-butyl-4-spirocyclopentane-1-[((2′-tetrazol-5-yl)biphenyl-4-yl)methyl]-2-imidazolin-5-one] | −45.8 ± 4.9 10^−9 As/g | 20.7 ± 17.4 | 23.3 ± 23 | 1.0 ± 0.5 |  | 45.8±4.9 10^−9 As/g |
| CCCCC1=NC2(CCCC2)C(=O)N1Cc1ccc(-c2ccccc2-c2nnn[nH]2)cc1 [Example 5, 2-n-butyl-4-spirocyclopentane-1-[((2′-tetrazol-5-yl)biphenyl-4-yl)methyl]-2-imidazolin-5-one] | −17.1 ± 2.9 10^−9 As/g | 58 ± 50 | 9.5 ± 8 | 6.4 ± 1.2 |  |  |
| CCCCC1=NC2(CCCC2)C(=O)N1Cc1ccc(-c2ccccc2-c2nnn[nH]2)cc1 [Example 1, 2-n-butyl-4-spirocyclopentane-1-[((2′-tetrazol-5-yl)biphenyl-4-yl)methyl]-2-imidazolin-5-one] | −33.7 ± 15 10^−9 As/g | 14.9 ± 10.1 | 13 ± 10 | 1.2 ± 1.4 |  |  |

— patent US20090208573A1, “NOVEL POLYMORPH FORM OF IRBESARTAN” (LEK PHARMACEUTICALS D.D, priority 2004, published 2009)
